Test results from PubChem BioAssay AID248 (DTP/NCI, 2004).
Where “and” joins values, the source holds several entries; their conditions need not be identical. Equal values may be shown once. Toxic doses and inconclusive results are not listed.

Tested on: L1210 leukemia ip in BDF1 mice, survival T/C
Test: NCI In Vivo Anticancer Drug Screen. Data for tumor model L1210 Leukemia (intraperitoneal) in B6D2F1 (BDF1) mice
Details: endpoint: mean survival time, higher = longer survival
How it was run: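 Survival endpoint. Drug-treated group vs vehicle group, expressed as T divided by C. Tumor passaged by transplantation.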

[1] = dose: 100.0 mg/kg/injection, schedule: Q01DX009 (ip), vehicle: saline with Tween-80
[2] = dose: 200.0 mg/kg/injection, schedule: Q01DX009 (ip), vehicle: saline with Tween-80
[3] = dose: 400.0 mg/kg/injection, schedule: Q01DX001 (ip), vehicle: saline
[4] = dose: 100.0 mg/kg/injection, schedule: Q01DX001 (ip), vehicle: saline with Tween-80
[5] = dose: 200.0 mg/kg/injection, schedule: Q01DX001 (ip), vehicle: saline with Tween-80
[6] = dose: 100.0 mg/kg/injection, schedule: Q04DX003 (ip), vehicle: saline with Tween-80
[7] = dose: 200.0 mg/kg/injection, schedule: Q04DX003 (ip), vehicle: saline with Tween-80
[8] = dose: 400.0 mg/kg/injection, schedule: Q04DX003 (ip), vehicle: saline with Tween-80
[9] = dose: 12.5 mg/kg/injection, schedule: Q04DX003 (ip), vehicle: saline
[10] = dose: 25.0 mg/kg/injection, schedule: Q04DX003 (ip), vehicle: saline
[11] = dose: 50.0 mg/kg/injection, schedule: Q04DX003 (ip), vehicle: saline
[12] = dose: 5.0 mg/kg/injection, schedule: Q01DX009 (ip), vehicle: saline
[13] = dose: 10.0 mg/kg/injection, schedule: Q01DX009 (ip), vehicle: saline
[14] = dose: 20.0 mg/kg/injection, schedule: Q01DX009 (ip), vehicle: saline
[15] = dose: 100.0 mg/kg/injection, schedule: Q01DX001 (ip), vehicle: saline
[16] = dose: 200.0 mg/kg/injection, schedule: Q01DX001 (ip), vehicle: saline
[17] = dose: 100.0 mg/kg/injection, schedule: Q04DX003 (ip), vehicle: saline

O=C(O)c1cc(CBr)cc(CBr)c1
T/C (dose: 3.13 mg/kg/injection, schedule: Q01DX009 (ip), vehicle: saline with Tween-80): 97 % of control | T/C (dose: 6.25 mg/kg/injection, schedule: Q01DX001 (ip), vehicle: saline with Tween-80): 102 % of control | T/C (dose: 6.25 mg/kg/injection, schedule: Q01DX009 (ip), vehicle: saline with Tween-80): 101 % of control | T/C (dose: 12.5 mg/kg/injection, schedule: Q01DX001 (ip), vehicle: saline with Tween-80): 113 % of control

N#Cc1c[nH]n2c(=S)ncnc12
T/C [1]: 105 % of control | T/C [2]: 101 % of control

O=S(=O)(O)NC1CCCCC1
T/C (dose: 25.0 mg/kg/injection, schedule: Q01DX009 (ip), vehicle: acetone): 100 % of control | T/C (dose: 50.0 mg/kg/injection, schedule: Q01DX009 (ip), vehicle: acetone): 100 % of control | T/C (dose: 100.0 mg/kg/injection, schedule: Q01DX009 (ip), vehicle: acetone): 100 % of control | T/C [3]: 95 % of control | T/C (dose: 800.0 mg/kg/injection, schedule: Q01DX001 (ip), vehicle: saline): 90 % of control | T/C (dose: 1200.0 mg/kg/injection, schedule: Q01DX001 (ip), vehicle: saline): 86 % of control | T/C (dose: 1600.0 mg/kg/injection, schedule: Q01DX001 (ip), vehicle: saline): 92 % of control

CC[CH2][Pb]([Cl])([CH2]CC)[CH2]CC
T/C (dose: 12.5 mg/kg/injection, schedule: Q04DX003 (ip), vehicle: Klucel (hydroxypropylcellulose) (HPC)): 106 % of control | T/C (dose: 25.0 mg/kg/injection, schedule: Q04DX003 (ip), vehicle: Klucel (hydroxypropylcellulose) (HPC)): 95 % of control | T/C (dose: 50.0 mg/kg/injection, schedule: Q04DX003 (ip), vehicle: Klucel (hydroxypropylcellulose) (HPC)): 90 % of control

OCc1cnc[nH]1
T/C (dose: 3.0 mg/kg/injection, schedule: Q04DX002 (ip), vehicle: saline): 123 % of control | T/C (dose: 6.0 mg/kg/injection, schedule: Q04DX002 (ip), vehicle: saline): 97 % of control | T/C (dose: 12.0 mg/kg/injection, schedule: Q04DX002 (ip), vehicle: saline): 94 % of control | T/C (dose: 25.0 mg/kg/injection, schedule: Q04DX002 (ip), vehicle: saline): 97 % of control and 121 % of control | T/C (dose: 50.0 mg/kg/injection, schedule: Q04DX002 (ip), vehicle: saline): 105 % of control

O=[N+]([O-])c1cccc(/C=C/CCOc2ccccc2)c1
T/C (dose: 100.0 mg/kg/injection, schedule: Q01DX009 (sc), vehicle: olive oil, sesame oil, peanut oil): 97 % of control | T/C (dose: 100.0 mg/kg/injection, schedule: Q04DX003 (sc), vehicle: olive oil, sesame oil, peanut oil): 101 % of control | T/C (dose: 200.0 mg/kg/injection, schedule: Q01DX009 (sc), vehicle: olive oil, sesame oil, peanut oil): 114 % of control | T/C (dose: 200.0 mg/kg/injection, schedule: Q04DX003 (sc), vehicle: olive oil, sesame oil, peanut oil): 100 % of control | T/C (dose: 400.0 mg/kg/injection, schedule: Q01DX009 (sc), vehicle: olive oil, sesame oil, peanut oil): 109 % of control | T/C (dose: 400.0 mg/kg/injection, schedule: Q04DX003 (sc), vehicle: olive oil, sesame oil, peanut oil): 103 % of control

Cc1cn2c(nc1=O)OC1CC2OC1CO (stereo not given)
T/C (dose: 100.0 mg/kg/injection, schedule: Q01DX005 (ip), vehicle: saline): 122 % of control | T/C (dose: 200.0 mg/kg/injection, schedule: Q01DX005 (ip), vehicle: saline): 152 % of control

CCCCCCCCCCCCCCCc1ccc(C(=O)C[n+]2ccccc2)cc1
T/C (dose: 16.5 mg/kg/injection, schedule: Q01DX009 (ip), vehicle: saline with Tween-80): 114 % of control | T/C (dose: 25.0 mg/kg/injection, schedule: Q01DX009 (ip), vehicle: saline with Tween-80): 120 % of control

Nc1ncnc(N)c1NC(=O)c1cccc(F)c1
T/C [4]: 106 % of control | T/C [5]: 101 % of control | T/C (dose: 400.0 mg/kg/injection, schedule: Q01DX001 (ip), vehicle: saline with Tween-80): 102 % of control

Nc1nc2ncc(CNc3cnc(C(=O)NC(CCC(=O)O)C(=O)O)nc3)nc2c(=O)[nH]1 (stereo not given)
T/C (dose: 50.0 mg/kg/injection, schedule: Q01DX009 (ip), vehicle: alkali diluted with saline): 107 % of control | T/C [4]: 103 % of control | T/C [5]: 112 % of control

CCOC(=O)C(C)C1(O)CCCCC1 (stereo not given)
T/C (dose: 100.0 mg/kg/injection, schedule: Q01DX009 (ip), vehicle: saline): 98 % of control | T/C (dose: 200.0 mg/kg/injection, schedule: Q01DX009 (ip), vehicle: saline): 95 % of control | T/C (dose: 400.0 mg/kg/injection, schedule: Q01DX009 (ip), vehicle: saline): 98 % of control

C[N+]1(C)CCC(=O)CC1
T/C [6]: 98 % of control | T/C [7]: 98 % of control | T/C [8]: 95 % of control

c1ccc([P+](Cc2ccc3c(c2)OCO3)(c2ccccc2)c2ccccc2)cc1
T/C (dose: 12.5 mg/kg/injection, schedule: Q01DX001 (ip), vehicle: saline): 98 % of control | T/C (dose: 12.5 mg/kg/injection, schedule: Q01DX009 (ip), vehicle: saline): 101 % of control | T/C [9]: 95 % of control | T/C (dose: 25.0 mg/kg/injection, schedule: Q01DX001 (ip), vehicle: saline): 95 % of control | T/C [10]: 106 % of control | T/C (dose: 50.0 mg/kg/injection, schedule: Q01DX001 (ip), vehicle: saline): 96 % of control | T/C [11]: 88 % of control

Cc1ccc(S(=O)(=O)N/N=C\c2cc(Cl)ccc2O)cc1
T/C (dose: 100.0 mg/kg/injection, schedule: Q01DX009 (ip), vehicle: Klucel (hydroxypropylcellulose) (HPC)): 105 % of control | T/C (dose: 100.0 mg/kg/injection, schedule: Q04DX003 (ip), vehicle: Klucel (hydroxypropylcellulose) (HPC)): 100 % of control | T/C (dose: 200.0 mg/kg/injection, schedule: Q01DX009 (ip), vehicle: Klucel (hydroxypropylcellulose) (HPC)): 100 % of control | T/C (dose: 200.0 mg/kg/injection, schedule: Q04DX003 (ip), vehicle: Klucel (hydroxypropylcellulose) (HPC)): 103 % of control | T/C (dose: 400.0 mg/kg/injection, schedule: Q01DX009 (ip), vehicle: Klucel (hydroxypropylcellulose) (HPC)): 103 % of control | T/C (dose: 400.0 mg/kg/injection, schedule: Q04DX003 (ip), vehicle: Klucel (hydroxypropylcellulose) (HPC)): 100 % of control

CC(=O)OCCN1CCN(CC/C=C2\c3ccccc3Sc3ccc(Cl)cc32)CC1
T/C (dose: 2.0 mg/kg/injection, schedule: Q01DX009 (ip), vehicle: saline): 100 % of control | T/C [12]: 98 % of control and 115 % of control | T/C [13]: 102 % of control | T/C [14]: 111 % of control | T/C [10]: 120 % of control | T/C (dose: 40.0 mg/kg/injection, schedule: Q01DX009 (ip), vehicle: saline): 117 % of control | T/C [15]: 108 % of control | T/C [16]: 114 % of control

COC1OC(COC(=O)c2ccccc2)C(OC(=O)N(C)c2ccccc2)C1OC (stereo not given)
T/C [6]: 98 % of control | T/C [7]: 92 % of control | T/C [8]: 95 % of control

CCCC[n+]1ccccc1Cc1ccccc1
T/C (dose: 6.25 mg/kg/injection, schedule: Q04DX003 (ip), vehicle: saline): 102 % of control | T/C [9]: 97 % of control

COC(=O)c1ccccc1C(=O)O
T/C [6]: 101 % of control | T/C [7]: 93 % of control

Brc1ccc(Oc2ccccc2)cc1
T/C [1]: 101 % of control | T/C [6]: 102 % of control | T/C [2]: 95 % of control | T/C [7]: 97 % of control | T/C (dose: 400.0 mg/kg/injection, schedule: Q01DX009 (ip), vehicle: saline with Tween-80): 97 % of control | T/C [8]: 108 % of control

CCCCCCCCCCCC(CCCCCCCC)CCCCCCCC
T/C [17]: 94 % of control | T/C (dose: 200.0 mg/kg/injection, schedule: Q04DX003 (ip), vehicle: saline): 93 % of control | T/C (dose: 400.0 mg/kg/injection, schedule: Q04DX003 (ip), vehicle: saline): 100 % of control

CCCCCCCCCCCCCCNC(=O)Nc1ccc(Cl)c(Cl)c1
T/C [15]: 95 % of control | T/C [16]: 92 % of control | T/C [3]: 95 % of control

C/C=C/CC1(CC)C(=O)NC(=S)NC1=O
T/C (dose: 75.0 mg/kg/injection, schedule: Q01DX001 (ip), vehicle: saline): 107 % of control | T/C (dose: 150.0 mg/kg/injection, schedule: Q01DX001 (ip), vehicle: saline): 113 % of control

CCN=C1N[N+]2=CCCCC2S1 (stereo not given)
T/C [11]: 103 % of control | T/C [17]: 109 % of control

CCCCCCCCCCCCCC1=NCCN1CCO
T/C [12]: 94 % of control | T/C [13]: 96 % of control | T/C [14]: 86 % of control
